Assay: Bovine Brain Endothelial Cells (BBMEC) transport studies, in vitro blood-brain barrier permeability
Assay type: in vitro ADME
Conditions: mean ± standard deviation
Method: The compounds of this invention are capable of crossing the blood-brain barrier (BBB) as shown by their ability to penetrate across a membrane of a monolayer of bovine brain microvessel endothelial cells, an in vitro model for B3B permeability.
Bovine Brain Endothelial Cells (BBMEC) TIransport Studies
The procedure was performed according to: Kenneth L. Audus et al., Brain Microvessel Endothelial Cell Culture System (Chapter 13) pp 239-258. In Models for Assessing Drug Absorption and Metabolism, Ronald T. Borchardt et al. eds., Plenum Press, New York 1996, incorporated herein by reference.

COc1c(O[Si](C(C)C)(C(C)C)C(C)C)cccc1C(OC(=O)[C@@H](OC)c1ccccc1)C1CCN(CCc2ccc(F)cc2)CC1 (stereo partly drawn) [Example 1C, (S)-Methoxy-2-phenyl-acetic acid {1-[2-(4-fluoro-phenyl)-ethyl]-piperidin-4-yl}-(2-methoxy-3-triisopropylsilanyloxy-phenyl)-methyl ester]
Papp at 5.4 µM (5.4 μM): 41.4 ± 16.4 ×10⁻⁶ cm/s | Papp at 16 µM (16 μM): 52.5 ± 9.5 ×10⁻⁶ cm/s

— US6465490B1, “Sulfuric acid mono-[3({1-[2-(4-fluoro-phenyl)-ethyl]-piperidin-4-yl}-hydroxy-methyl)-2-methoxy-phenyl]ester” (Aventis Pharmaceuticals Inc., priority 1999, dated 2002)
